# Values of other authors in patent US20230233510A1, “CYSTEINE PROTEASE INHIBITORS FOR USE IN THE PREVENTION AND/OR TREATMENT OF CORONAVIRUS” (ALBERT-LUDWIGS-UNIVERSITÄT FREIBURG, priority 2020, published 2023).
# Columns and labels:
# [1] = test system: human coronavirus NL63 (HCoV-NL63); conditions: HeLa cells expressing ACE2 and TMPRSS2
# [2] = test system: SARS-CoV; conditions: HeLa cells expressing ACE2 and TMPRSS2
smiles,measurement,setting,value
"CN(C)C(=O)COC(=O)Cc1ccc(OC(=O)c2ccc(NC(=N)N)cc2)cc1 [camostat, (4-{2-[2-(Dimethylamino)-2-oxoethoxy]-2-oxoethyl}phenyl)(4-carbamimidamidobenzoate)]",block of infection,[1],partially blocked infection
same,block of infection,[2],partially blocked infection
